Source: patent publication US6310247A, “7-aryl-6(Z)-heptatrienoic acid retinamides” (Hoffmann-LA Roche Inc., priority 1999, dated 2001)

Test system: NMU-induced mammary tumors
Experiment: NMU-induced mammary tumors in Sprague-Dawley rats
Format: in vivo, rat
Conditions: for Effect on tumors (in words): i.p., tumor size and number; for Number of first tumors with volume relative to day 0: progressed > 100% / Number of first tumors with volume relative to day 0: regressed > 50% / Number of first tumors with volume relative to day 0: static / Number of first tumors: total: 25 mg/kg i.p. q.d.; for No. of first tumors regressing to unpalpable/no. palpable at day 0: 25 mg/kg i.p., 5×/wk for 4 weeks
Source text: Thus, compounds of formula 1 have efficacy against established nitrosomethylurea (NMU)-induced mammary tumors in rats. The induction of invasive mammary-tissue specific tumors in rats by NMU (Gullino et al., 1975) produces primarily estrogen-dependent carcinomas (Arafah et al., 1980) within as little as 4 weeks following a single, low-toxicity dose (McCormick et al., 1981) and results in a high percentage of tumor induction. The properties of the tumors induced in rats by NMU in this experimental model are representative of human mammary carcinoma and are invasive (McCormick et al., 1981).
Materials and Methods, 750 virgin female Sprague-Dawley rats 26 to 32 days of age (Harlan Laboratories) were housed in polycarbonate cages (3 rats/cage) and provided food and water ad libitum. Mammary tumors were induced essentially as previously described (Gullino et al., 1975 and McCormick et al., 1981). At the age of 50+/-3 days, each animal received a single dose (50 mg/kg body weight) of NMU (Sigma, St. Louis, Mo.) in 0.85% sodium chloride acidified to pH 5.0 with acetic acid. The carcinogen was administered with a 26 g needle i.v. via the tail vein in a 0.5 ml volume.
Rats were checked weekly starting 4 weeks after NMU administration for palpable tumors and those bearing at least one mammary tumor, palpable for 11 days or less, were entered into study on day 61 post-NMU administration. Fifteen animals were entered into treatment or control groups. Tumor diameters were measured weekly with calipers along their long and short axes and tumor volume was calculated from the ellipsoid formula, (D×d^2)/2, where D is the long diameter and d is the short diameter. The days on which new palpable tumors arose or on which established tumors disappeared were noted along with anatomical position. Tumors which appeared in the same anatomical location at which a tumor had previously completely regressed were considered to be regrowths of the same tumor. Rats which developed ulcerations of tumors were immediately terminated from studies. All animals entered into groups were weighed daily on weekdays for 6 weeks.
N-(4-hydroxyphenyl)-(2E,4E,6Z)-7-[3,5-bis(trifluoromethyl)phenyl]-3,7-dimethyl-2,4,6-heptatrienamide was prepared in 4% ethanol, 8% PEG400, 7.2% Cremophor RH40 and 80% D5W and administered intraperitoneally in a 2.8 ml volume via a 21 g needle 5 times per week, q.d., for 4 weeks.
For treatment of NMU-induced tumors in rats, solutions of the test compound N-(4-hydroxyphenyl)-(2E,4E,6Z)-7-[3,5-bis(trifluoromethyl)phenyl]-3,7-dimethyl-2,4,6-heptatrienamide were prepared daily in 4% ethanol, 8% PEG400, 7.2% Cremophor RH40 and 80% D5W.

## C/C(=C/C=C/C(C)=C/C(=O)Nc1ccc(O)cc1)c1cc(C(F)(F)F)cc(C(F)(F)F)c1 [N-(4-hydroxyphenyl)-(2E,4E,6Z)-7-[3,5-bis(trifluoromethyl)phenyl]-3,7-dimethyl-2,4,6-heptatrienamide]
25 mg/kg/2.8 ml i.p. q.d., 5×/wk for 4 wks
  Rats treated that succumbed to toxicity: 3 of 15
  Effect on tumors (in words): decrease both tumor size and tumor number
Listed as the tested compound
  Effect on tumors (in words): capable of causing existing tumors to shrink, and, in addition, causes the number of tumors to decrease by eliminating first tumors and preventing additional tumors from arising
Week 1, 5×/wk for 4 wks
  Number of first tumors with volume relative to day 0: progressed > 100%: 4
  Number of first tumors with volume relative to day 0: regressed > 50%: 10
  Number of first tumors with volume relative to day 0: static: 5
  Number of first tumors: total: 19
Week 1, ** p < 0.005 vs vehicle
  No. of first tumors regressing to unpalpable/no. palpable at day 0: 7/20
Week 2, 5×/wk for 4 wks
  Number of first tumors with volume relative to day 0: progressed > 100%: 6
  Number of first tumors with volume relative to day 0: regressed > 50%: 8
  Number of first tumors with volume relative to day 0: static: 5
  Number of first tumors: total: 19
Week 2, * p < 0.05 vs vehicle
  No. of first tumors regressing to unpalpable/no. palpable at day 0: 5/19
Week 3, 5×/wk for 4 wks
  Number of first tumors with volume relative to day 0: progressed > 100%: 6
  Number of first tumors with volume relative to day 0: regressed > 50%: 6
  Number of first tumors with volume relative to day 0: static: 3
  Number of first tumors: total: 19
Week 3
  No. of first tumors regressing to unpalpable/no. palpable at day 0: 3/19
Week 4, * p < 0.05 vs vehicle
  No. of first tumors regressing to unpalpable/no. palpable at day 0: 4/19
Week 5
  No. of first tumors regressing to unpalpable/no. palpable at day 0: 4/18
Week 6, * p < 0.05 vs vehicle
  No. of first tumors regressing to unpalpable/no. palpable at day 0: 5/18
